Measured values reported in patent US8461328B2, “Tricyclic heterocyclic compounds, compositions and methods of use thereof” (Genentech, Inc., priority 2010, dated 2013).
pKi: −log10 of the molar value. Where a name gives a salt, the structure may show the parent alone. Read-outs that look alike come from different tables or passages of the source.

What was measured:
Type in all cases: biochemical
[1] = target: T1, JAK3 (Homo sapiens, UniProt P52333); experiment: JAK3 inhibition (Table 4); conditions: read-out: JAK3 Ki
T1 construct: made in house; host or cells: SF9 insect cells (baculovirus)

[2] = target: T2, TYK2 (Homo sapiens, UniProt P29597); experiment: TYK2 inhibition (Table 4)
T2 construct: made in house; host or cells: SF9 insect cells (baculovirus)
T2 sequence (P29597 873-1187): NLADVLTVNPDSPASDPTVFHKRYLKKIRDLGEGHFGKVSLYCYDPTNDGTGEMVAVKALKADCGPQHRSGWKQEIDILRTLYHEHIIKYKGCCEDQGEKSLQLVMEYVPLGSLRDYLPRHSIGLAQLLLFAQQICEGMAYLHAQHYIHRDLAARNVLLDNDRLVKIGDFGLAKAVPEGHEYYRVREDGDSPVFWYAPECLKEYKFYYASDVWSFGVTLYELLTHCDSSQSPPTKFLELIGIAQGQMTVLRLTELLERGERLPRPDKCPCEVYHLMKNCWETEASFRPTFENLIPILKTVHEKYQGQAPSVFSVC

[3] = target: T3, JAK1 (Homo sapiens, UniProt P23458); experiment: JAK1 inhibition (Table 4)
T3 construct: made in house; host or cells: SF9 insect cells (baculovirus)

[4] = target: T4, JAK2 (Homo sapiens, UniProt O60674); experiment: JAK2 inhibition (Table 4); conditions: read-out: JAK2 Ki
T4 construct: made in house; host or cells: SF9 insect cells (baculovirus)
T4 sequence (O60674 812-1132): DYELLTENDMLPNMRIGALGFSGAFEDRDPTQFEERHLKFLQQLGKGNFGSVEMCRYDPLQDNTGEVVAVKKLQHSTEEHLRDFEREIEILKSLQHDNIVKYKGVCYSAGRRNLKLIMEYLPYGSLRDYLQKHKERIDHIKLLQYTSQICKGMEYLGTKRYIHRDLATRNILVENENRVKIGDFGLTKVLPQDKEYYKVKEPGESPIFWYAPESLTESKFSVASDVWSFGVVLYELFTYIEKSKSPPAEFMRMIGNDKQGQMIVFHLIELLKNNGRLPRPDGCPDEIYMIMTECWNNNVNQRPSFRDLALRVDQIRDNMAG

T1 sequence (P52333 783-1124): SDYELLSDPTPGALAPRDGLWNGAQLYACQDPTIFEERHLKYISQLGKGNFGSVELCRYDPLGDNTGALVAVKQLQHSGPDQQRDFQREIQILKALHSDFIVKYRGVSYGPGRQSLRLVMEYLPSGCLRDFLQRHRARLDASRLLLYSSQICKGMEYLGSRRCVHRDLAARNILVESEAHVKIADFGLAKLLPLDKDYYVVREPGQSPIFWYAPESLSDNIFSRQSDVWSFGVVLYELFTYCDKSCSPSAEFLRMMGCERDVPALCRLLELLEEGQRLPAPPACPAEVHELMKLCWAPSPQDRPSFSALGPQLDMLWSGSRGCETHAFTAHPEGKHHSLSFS
T3 sequence (P23458 852-1154): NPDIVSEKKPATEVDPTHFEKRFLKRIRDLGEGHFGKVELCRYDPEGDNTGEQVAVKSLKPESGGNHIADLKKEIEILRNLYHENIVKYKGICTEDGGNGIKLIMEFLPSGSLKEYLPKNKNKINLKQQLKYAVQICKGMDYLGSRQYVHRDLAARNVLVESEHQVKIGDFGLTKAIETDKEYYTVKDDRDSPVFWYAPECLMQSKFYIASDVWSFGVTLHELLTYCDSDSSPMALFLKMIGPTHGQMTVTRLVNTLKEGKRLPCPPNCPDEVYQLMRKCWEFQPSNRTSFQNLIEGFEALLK

| pKi [1] | pKi [2] | pKi ([3]; read-out: JAK1 Ki) | pKi [4] | Molecule | pKi ([3]; JAK1 Ki) |
| --- | --- | --- | --- | --- | --- |
| 7.50 | 6.55 | 8.31 | 7.53 | CC(O)c1nc2cnc3[nH]ccc3c2n1C1CCN(Cc2csc(C(F)(F)F)n2)CC1 (racemic) [Example 351, 1-{1-[1-(2-Trifluoromethyl-thiazol-4-ylmethyl)-piperidin-4-yl]-1,6-dihydro-1,3,5,6-tetraaza-as-indacen-2-yl}-ethanol] |  |
| 6.32 | 7.07 | 7.79 | 7.67 | Cc1noc(C)c1S(=O)(=O)N1CCC(n2cnc3cnc4[nH]ccc4c32)CC1 [Example 447, 1-[1-(3,5-Dimethyl-isoxazole-4-sulfonyl)-piperidin-4-yl]-1,6-dihydro-1,3,5,6-tetraaza-as-indacene] |  |
| 6.98 | 6.20 | 7.21 | 6.99 | N#CCCN1CCC(n2c(COCC3CCC3)nc3cnc4[nH]ccc4c32)CC1 [Example 840, 3-[4-(2-Cyclobutylmethoxymethyl-6H-1,3,5,6-tetraaza-as-indacen-1-yl)-piperidin-1-yl]-propionitrile] |  |
| 7.43 | 7.33 | 8.09 | 7.88 | OC1CCCC(n2cnc3cnc4[nH]ccc4c32)C1 (single isomer, unassigned) [Example 560, 3-(6H-1,3,5,6-Tetraaza-as-indacen-1-yl)-cyclohexanol] |  |
| 6.95 | 6.41 | 7.13 | 6.91 | c1nc2c([nH]1)CCC(n1cnc3cnc4[nH]ccc4c31)C2 (racemic) [Example 707, 1-(4,5,6,7-Tetrahydro-3H-benzoimidazol-5-yl)-1,6-dihydro-1,2,3,5,6-tetraaza-as-indacene] |  |
| 7.55 | 7.58 | 8.41 | 7.65 | CCN1CCC(n2c([C@@H](C)O)nc3cnc4[nH]ccc4c32)C(F)(F)C1 (single isomer, unassigned) [Example 879] |  |
| 7.48 | 6.76 | 7.46 | 7.52 | CC(C1CCCO1)n1cnc2cnc3[nH]ccc3c21 (single isomer, unassigned) [Example 418, 1-[1-(Tetrahydro-furan-2-yl)-ethyl]-1,6-dihydro-1,3,5,6-tetraaza-as-indacene] |  |
| 7.05 | 7.17 | 8.02 | 7.20 | C[C@@H](O)c1nc2cnc3[nH]ccc3c2n1C1(C)CCN(S(C)(=O)=O)CC1 [Example 585, (R)-1-[1-(1-Methanesulfonyl-4-methyl-piperidinyl)-1,6-dihydro-1,2,3,5,6-tetraaza-as-indacen-2-yl]-ethanol] |  |
| 6.77 | 6.66 | 7.47 | 7.00 | Cc1nc2cnc3[nH]ccc3c2n1[C@@H]1CC[C@@H](NC2COC2)C1 [Example 625, [(1R,3R)-3-(2-Methyl-6H-1,2,3,5,6-tetraaza-as-indacen-1-yl)-cyclopentyl]-oxetan-3-yl-amine] |  |
| 7.80 | 7.10 | 8.20 | 7.61 | Cc1nc2cnc3[nH]ccc3c2n1[C@@H]1CC[C@@H](NCCC#N)C1 [Example 724, 3-[(1R,3R)-3-(2-Methyl-6H-1,3,5,6-tetraaza-as-indacen-1-yl)-cyclopentylamino]-propionitrile] |  |
| 6.86 | 7.30 | 8.16 | 6.85 | C[C@@H](O)c1nc2cnc3[nH]ccc3c2n1[C@H]1CC[C@@H](N2CCC(C#N)CC2)CC1 (relative stereo) [Example 611, Cis 1-{4-[2-(1-hydroxy-ethyl)-6H-1,2,3,5,6-tetraaza-as-indacen-1-yl]-cyclohexyl}-piperidine-4-carbonitrile] |  |
| 6.03 | 5.84 | 6.86 | 6.35 | COCCNC1CCC(n2nnc3cnc4[nH]ccc4c32)C1 (racemic) [Example 618, Racemic trans (2-methoxy-ethyl)-[3-(6H-1,2,3,5,6-pentaaza-as-indacen-1-yl)-cyclopentyl]-amine hydrochloride] |  |
| 6.39 | 6.55 | 7.26 | 7.05 | Cn1cc2c(n1)CCC(n1cnc3cnc4[nH]ccc4c31)C2 (racemic) [Example 956, 1-(2-Methyl-4,5,6,7-tetrahydro-2H-indazol-5-yl)-1,6-dihydro-1,3,5,6-tetraaza-as-indacene] |  |
| 7.27 | 6.93 | 8.11 | 7.59 | CCS(=O)(=O)NCc1nc2cnc3[nH]ccc3c2n1C1CCN(CCC#N)CC1 [Example 504] |  |
| 6.08 | 6.30 | 7.51 | 6.90 | Cc1nc2cnc3[nH]ccc3c2n1[C@H]1CC[C@H](N2CCC(O)C2)CC1 (mixture of isomers) [Example 597, Racemic trans 1-[4-(2-Methyl-6H-1,2,3,5,6-tetraaza-as-indacen-1-yl)-cyclohexyl]-pyrrolidin-3-ol] |  |
| 6.48 | 6.73 | 7.62 | 6.95 | NC1CCCC(n2cnc3cnc4[nH]ccc4c32)C1 (single isomer, unassigned) [Example 365, 3-(6H-1,3,5,6-Tetraaza-as-indacen-1-yl)-cyclohexylamine] |  |

Further lines, the molecule ahead of its results:

| Molecule | pKi [1] | pKi [2] | pKi ([3]; read-out: JAK1 Ki) | pKi [4] | pKi ([3]; JAK1 Ki) |
| --- | --- | --- | --- | --- | --- |
| N#Cc1ccc(CN2CC[C@@H](n3cnc4cnc5[nH]ccc5c43)C2)cc1 [Example 191, 4-[(R)-3-(6H-1,2,3,5,6-Tetraaza-as-indacen-1-yl)-pyrrolidin-1-ylmethyl]-benzonitrile] | 6.72 | 6.77 | 8.31 | 7.75 |  |
| O=C(Cc1nc2cnc3[nH]ccc3c2n1C1CCN(Cc2ccccc2)CC1)N1CC(F)(F)C1 [Example 259, 2-[1-(1-Benzyl-piperidin-4-yl)-1,6-dihydro-1,3,5,6-tetraaza-as-indacen-2-yl)-1-(3,3-difluoro-azetidin-1-yl)-ethanone] | 7.93 | 5.73 | 7.56 | 7.02 |  |
| N#CCN1CCC[C@H]1C(=O)N1CCC(n2cnc3cnc4[nH]ccc4c32)CC1 [Example 146, {(S)-2-[4-(6H-1,2,3,5,6-Tetraaza-as-indacen-1-yl)-piperidine-1-carbonyl]-pyrrolidin-1-yl}-acetonitrile] | 5.56 | 5.76 | 6.82 | 6.72 |  |
| OC(CN1CCC(n2cnc3cnc4[nH]ccc4c32)CC1)(C(F)(F)F)C(F)(F)F [Example 174, 1,1,1,3,3,3-Hexafluoro-2-[4-(6H-1,2,3,5,6-tetraaza-as-indacen-1-yl)-piperidin-1-ylmethyl]-propan-2-ol] | 7.06 | 8.12 | 8.80 | 8.58 |  |
| FCCN1CCC(n2cnc3cnc4[nH]ccc4c32)CC1 [Example 212, 1-[1-(2-Fluoro-ethyl)-piperidin-4-yl]-1,6-dihydro-1,2,3,5,6-tetraaza-as-indacene] | 7.23 | 7.93 | 8.66 | 8.49 |  |
| CCOC(=O)N1CCC(n2c([C@@H](C)O)nc3cnc4[nH]ccc4c32)CC1 [Example 927] | 6.42 | 6.15 | 6.75 | 6.21 |  |
| c1cc2c(ncc3nc(C4CC4)n(C4CCNCC4)c32)[nH]1 [Example 298, 2-Cyclopropyl-1-piperidin-4-yl-1,6-dihydro-1,3,5,6-tetraaza-as-indacene] | 6.64 | 5.89 | 7.56 | 6.44 |  |
| FC(F)(F)c1nc2cnc3[nH]ccc3c2n1[C@@H]1CCCN(Cc2ccccc2)C1 [Example 287] | 6.09 | 5.69 |  | 6.84 | 6.55 |
| CC(O)c1nc2cnc3[nH]ccc3c2n1C1CCN(Cc2cccnc2)CC1 (racemic) [Example 292, 1-[1-(1-Pyridin-3-ylmethyl-piperidin-4-yl)-1,6-dihydro-1,3,5,6-tetraaza-as-indacen-2-yl]-ethanol] | 8.10 | 6.66 | 8.53 | 7.58 |  |
| N#CCCN1CC[C@@H](n2cnc3cnc4[nH]ccc4c32)C1 [Example 187, 3-[(R)-3-(6H-1,2,3,5,6-Tetraaza-as-indacen-1-yl)-pyrrolidin-1-yl]-propionitrile] | 7.24 | 7.23 | 7.99 | 7.65 |  |
| COc1ccc(CN2CCC[C@@H](n3cnc4cnc5[nH]ccc5c43)C2)cc1 [Example 46, 1-[(R)-1-(4-Methoxy-benzyl)-piperidin-3-yl]-1,6-dihydro-1,3,5,6-tetraaza-as-indacene] | 6.38 | 6.04 | 7.14 | 6.80 |  |
| N-tert-Butyl-2-[1-(tetrahydro-pyran-3-yl)-1,6-dihydro-1,3,5,6-tetraaza-as-indacen-2-yl]-acetamide [Example 964] | 6.79 | 6.31 | 7.10 | 6.56 |  |
| CC1CC(n2cnc3cnc4[nH]ccc4c32)CCN1 (racemic) [Example 229, 1-(2-Methyl-piperidin-4-yl)-1,6-dihydro-1,3,5,6-tetraaza-as-indacene] | 6.38 | 6.48 | 7.31 | 6.85 |  |
| CS(=O)(=O)N1CCC(n2c(CC3CCCC3)nc3cnc4[nH]ccc4c32)CC1 [Example 115, 2-Cyclopentylmethyl-1-(1-methanesulfonyl-piperidin-4-yl)-1,6-dihydro-1,2,3,5,6-tetraaza-as-indacene] | 6.26 | 6.81 | 6.49 | 6.13 |  |
